Assay results from patent US20150073154A1, “Discrete PEG Based Dyes” (EquIP, LLC, priority 2013, published 2015).
“And” between values parts separate entries of the source, which are not always exact repeats. Equal entries are not always repeated. Where two headings read alike, the source gives them in different places. One block for each molecule: values may come before it.

How the values were obtained:
[1] = Conjugation of ICG reagents with IgG: maximal ICG incorporation without losing the protein; assay type: physicochemical; details: reaction with MAG in 10% DMAC
Source text: The maximal number of ICGs using this reagent that can be incorporated into an IgG without losing the protein is 4-5 ICG/IgG (FIG. 18). A similar number of ICGs from ICG-NHS, the reagent without dPEG, can be substituted into IgG (FIG. 19).
c. Conjugation of ICG-dPEG12-NHS with MAG (Mouse Anti-Goat IgG Antibody)
MAG reacted with different concentrations of ICG-dPEG12-NHS in 10% DMAC
Product purified over two G50 spin columns in PBS
[IgG] and ICG/IgG molar ratios determined from A (770 nm) and A (280) nm
Lose most of protein when [ICG-dPEG12-NHS] in the reaction is ≧0.2 mM
Highest incorporation: ICG/IgG˜5

[2] = Solubility of ICG-NHS (no dPEG); assay type: physicochemical; details: 10% DMAC (our work)
Source text: Soluble in 10% DMSO (lit) or DMAC (our work)

[3] = Behaviour of unreacted reagent on spin columns in PBS (aggregation); assay type: physicochemical; details: no MAG control
Source text: Reacted with MAG but couldn't separate unreacted reagent on spin columns in PBS

[4] = 10% DMSO (lit); cited from earlier work
[5] = biological target: Human Serum Albumin (HSA) (Homo sapiens, UniProt P02768); assay: Fluorescence increase on addition to 4% HSA solution (HSA complex formation); assay type: binding
Experimental: ICG is a hydrophobic molecule that forms a tight complex with Human Serum Albumin (HSA). The fluorescence of ICG increased ˜10 fold, as expected, when it was added to a 4% HSA solution. When ICG is conjugated to a protein, it loses its ability to form tight HAS complexes, as confirmed in our experiments where the fluorescence of ICG-IgG (no dPEG) increased by only a factor of ˜2 when added to 4% HSA. We hypothesized that ICG might still be able to bind to HSA when it was bound to IgG through a dPEG12 linker.

Sequence of Human Serum Albumin (HSA) (P02768 25-609): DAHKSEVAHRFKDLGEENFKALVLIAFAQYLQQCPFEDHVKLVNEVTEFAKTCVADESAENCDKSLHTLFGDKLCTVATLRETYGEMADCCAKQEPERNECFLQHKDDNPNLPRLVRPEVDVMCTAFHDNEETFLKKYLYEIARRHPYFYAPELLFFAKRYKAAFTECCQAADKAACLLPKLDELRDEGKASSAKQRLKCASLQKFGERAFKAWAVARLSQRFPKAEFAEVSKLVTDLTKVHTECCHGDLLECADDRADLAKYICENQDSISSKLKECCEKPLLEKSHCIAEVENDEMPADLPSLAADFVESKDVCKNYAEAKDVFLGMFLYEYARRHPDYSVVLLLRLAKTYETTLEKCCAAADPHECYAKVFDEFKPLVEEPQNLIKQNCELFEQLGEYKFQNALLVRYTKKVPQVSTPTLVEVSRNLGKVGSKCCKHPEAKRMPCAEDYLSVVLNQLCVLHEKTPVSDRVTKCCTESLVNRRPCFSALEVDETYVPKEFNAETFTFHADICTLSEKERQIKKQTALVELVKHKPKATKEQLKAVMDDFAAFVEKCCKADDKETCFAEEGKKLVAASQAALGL

maximal number of ICGs that can be incorporated into an IgG without losing the protein / highest incorporation [1]: 4-5 ICG/IgG and ~5 ICG/IgG
Molecule: dPEG12-NHS ester)-1,1-dimethyl-benzoindoliden-hepta-1,3,5-trienyl-(1,1-dimethyl-benzoindolium butane sulfonate) [ICG-dPEG12-NHS]

solubility [2]: Soluble | aggregation of unreacted reagent [3]: apparently forms aggregates
Molecule: CC1(C)C(/C=C/C=C/C=C/C=C2\N(CCCCS(=O)(=O)[O-])c3ccc4ccccc4c3C2(C)C)=[N+](CCCCCC(=O)ON2C(=O)CCC2=O)c2ccc3ccccc3c21 [ICG-NHS]
solubility [4]: Soluble

increase of fluorescence when added to 4% HSA [5]: ~10 fold
Molecule: CC1(C)C(/C=C/C=C/C=C/C=C2\N(CCCCS(=O)(=O)[O-])c3ccc4ccccc4c3C2(C)C)=[N+](CCCCS(=O)(=O)[O-])c2ccc3ccccc3c21.[Na+] [ICG]
